The text below walks through data of US12298319B2, “Method for measuring alpha value of muscarinic M1 receptor positive allosteric modulators” (Takeda Pharmaceutical Company Limited, priority 2017, dated 2025).

A value given as a limit tells only on which side of the number the result lay.

The subject of assay [1] is layer 5 pyramidal neurons. Put plainly: Electrophysiology, current clamp of layer 5 pyramidal neurons in mPFC slices. It is filed as cell-based, mouse. Conditions: bath application, Compound D at 10 μM; for after hyperpolarization (AHP) / resting membrane potential (RMP): carbachol 10 M [sic] for 10 min; for after depolarization (ADP): carbachol for 10 min as printed. As to the method: Experiments were performed on coronal brain slices of the medial prefrontal cortex (mPFC) from 4-week-old male C57BL/6 mice. The animals were quickly sacrificed and the brain was placed in an ice-cold NMDG artificial cerebrospinal fluid (ACSF) (in mM): NMDG, 92; KCl, 2.5; CaCl2, 0.5; NaH2PO4, 1.25; MgSO4, 6; NaHCO3, 30; glucose, 25; HEPES, 20; thiourea, 2; Na-ascorbate, 5; and Na-pyruvate, 3) (Ting J. T. et al., Methods Mol Biol. 2014; 1183:221-42). Slices were cut at a thickness of 300 μm with a vibroslicer. Slices were initially transferred to a holding chamber containing NMDG aCSF for 15 minutes at 34° C. Slices were then transferred to a room temperature holding chamber for at least 1 h containing HEPES aCSF (in mM): NMDG, 92; KCl, 2.5; CaCl2, 2; NaH2PO4, 1.25; MgSO4, 2; NaHCO3, 30; glucose, 25; HEPES, 20; thiourea, 2; Na-ascorbate, 5; and Na-pyruvate, 3). Subsequently, the slices were transferred to the recording chamber, in which they were submerged and perfused with aCSF containing the following (in mM): NaCl, 124; KCl, 5; NaH2PO4, 1.2; MgCl2, 1.5; CaCl2, 2.5; glucose, 10; and NaHCO3, 24), at a flow rate of 1-2 ml/min. All buffers were continuously bubbled and saturated with carbogen (95% O2/5% CO2). Current clamp recordings were carried out at 32-33° C. from visually identified pyramidal neurons from layer 5 using a borosilicate pipette (5-7 MΩ) filled with intracellular solution (in mM): K-gluconate, 135; KCl, 4; HEPES, 10; EGTA, 0.2; MgATP, 4; Na2GTP, 0.3; pH 7.3 with KOH). Signals were acquired using a Multiclamp 700B amplifier and a Digidata 1440A interface board (Molecular Devices Japan, Tokyo, Japan), filtered between 2 kHz, sampled at 10 kHz, and analyzed with pClamp10 software.
M1Rs are known to contribute to the three cholinergic effects in layer 5 pyramidal neurons: the resting membrane potential (RMP) and physiological responses such as the after hyperpolarization (AHP) the after depolarization (ADP) that typically follow brief periods of action potential generation (Gulledge et al., J. Neurosci. 2009 Aug. 5; 29(31): 9888-9902). To investigate effects of M1 PAMs with different n value on brain function, cholinergic excitation by Compound D and Compound C were assessed. First, the muscarinic receptor agonist carbachol ([…] for 10 min) was tested by bath application (FIG. 13-A, FIG. 13-B, FIG. 13-C).

Another assay deals with T1, M5R (Homo sapiens, UniProt P08912).
T1 sequence (P08912 1-532): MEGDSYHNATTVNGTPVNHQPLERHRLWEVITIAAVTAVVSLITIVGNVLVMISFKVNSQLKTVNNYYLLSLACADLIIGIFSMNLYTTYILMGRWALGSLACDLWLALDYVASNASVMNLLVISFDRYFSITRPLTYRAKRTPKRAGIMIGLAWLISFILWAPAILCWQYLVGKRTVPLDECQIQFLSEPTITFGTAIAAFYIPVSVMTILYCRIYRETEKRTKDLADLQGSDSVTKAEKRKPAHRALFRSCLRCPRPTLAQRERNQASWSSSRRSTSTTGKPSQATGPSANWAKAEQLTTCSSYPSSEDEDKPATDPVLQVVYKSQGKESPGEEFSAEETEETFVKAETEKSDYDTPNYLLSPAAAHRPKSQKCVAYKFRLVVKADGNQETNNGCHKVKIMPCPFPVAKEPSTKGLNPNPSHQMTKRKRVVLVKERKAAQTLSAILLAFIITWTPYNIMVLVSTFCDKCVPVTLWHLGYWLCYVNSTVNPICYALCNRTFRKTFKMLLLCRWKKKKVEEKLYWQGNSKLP
The experiment in a line: Ca2+ flux assay in CHO-K1 cells expressing human M5R. It is filed as cell-based. The arrangement: expressed in transfected cells; host or cells: CHO-K1. Conditions: read-out: IP for M5R.

The target in a further assay is M3R (Homo sapiens, UniProt P20309). Put plainly: Ca2+ flux assay in CHO-K1 cells expressing human M3R. The arrangement: expressed in transfected cells; host or cells: CHO-K1. The format is cell-based. Conditions: read-out: IP for M3R. Background: A change in cytosolic calcium serves as a functional read-out for many receptors and channels.
In assay [2] the test system is scopolamine-induced cognitive deficits in rats. Put plainly: Novel object recognition task (NORT), scopolamine-induced memory deficits. The format is in vivo, rat. Conditions: for minimal efficacy dose in rats (cognitive improvement): NORT, p.o.; for minimal efficacy dose in rats (cognitive improvement) / NDI: scopolamine-treated rats. As to the method: On the day before testing, Long Evans rats were allowed to habituate to the behavioral test room environment for over 1 h, and then they were allowed to habituate to the empty test box (a gray-colored polyvinyl chloride box (40×40×50 cm)) for 10 min individually. Testing was comprised of two 3-min trials called the acquisition and the retention trials. These trials were separated by a given inter-trial interval (ITI). On the testing day, in the acquisition trial, rats were allowed to explore two identical objects (A1 and A2) for 3 min. In the retention trial, rats were again allowed to explore a familiar object (A3) and a novel object (B) for 3 min. The object exploration was defined as rats' licking, sniffing or touching the object with limbs while sniffing. Leaning against the object to look upward, standing or sitting on the object was excluded. The exploration time of each object (A1, A2, A3 and B) in each trial was measured manually. Novel discrimination index (NDI) was calculated using the following equation: novel object interaction/total interaction×100(%).
The acquisition and the retention trials were separated by 4 h ITI. […] Scopolamine (0.1 mg/kg) was administered subcutaneously 30 min prior to the acquisition trial.
(§1) The acquisition and the retention trials were separated by 4 h ITI.
as §1

Chain of M3R (P20309 whole entry): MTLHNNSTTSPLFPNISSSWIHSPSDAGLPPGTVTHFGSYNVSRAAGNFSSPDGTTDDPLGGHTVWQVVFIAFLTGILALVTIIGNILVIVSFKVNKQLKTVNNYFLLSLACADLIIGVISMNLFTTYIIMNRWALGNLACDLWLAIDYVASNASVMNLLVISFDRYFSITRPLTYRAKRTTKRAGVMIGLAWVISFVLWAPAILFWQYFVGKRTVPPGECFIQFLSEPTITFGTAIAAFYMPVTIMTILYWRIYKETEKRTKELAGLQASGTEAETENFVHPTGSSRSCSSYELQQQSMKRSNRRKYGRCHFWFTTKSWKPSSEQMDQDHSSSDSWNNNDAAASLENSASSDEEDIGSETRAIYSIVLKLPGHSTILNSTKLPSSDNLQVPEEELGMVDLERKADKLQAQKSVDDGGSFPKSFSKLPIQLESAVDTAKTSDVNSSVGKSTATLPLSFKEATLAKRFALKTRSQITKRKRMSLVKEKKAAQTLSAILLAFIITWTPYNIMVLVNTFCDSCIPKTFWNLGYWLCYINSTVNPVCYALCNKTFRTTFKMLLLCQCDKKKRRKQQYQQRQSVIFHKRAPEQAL

`Cc1c(Cc2ccc(-n3cccn3)cc2)cc2c(c1F)CN([C@H]1COCC[C@@H]1O)C2=O` [Compound D, 4-fluoro-2-[(3S,4S)-4-hydroxytetrahydro-2H-pyran-3-yl]-5-methyl-6-[4-(1H-pyrazol-1-yl)benzyl]-2,3-dihydro-1H-isoindol-1-one]: in assay [1], the “after hyperpolarization (AHP)” value was “not depolarization of RMP and suppression of AHP”; the “resting membrane potential (RMP)” value is on record as “not depolarization of RMP”; the “after depolarization (ADP)” value is “produced significant ADP generation”. Further, the EC50 on M5R is above 10 µM. Besides, on M3R, the EC50 was above 10 µM. In addition, the “NDI in NORT, scopolamine-induced deficits” value in assay [2] (0.3, 1, and 3 mg/kg p.o., rats, P≤0.025) is on record as “significantly increased NDI”. In assay [2], the “minimal efficacy dose in rats (cognitive improvement)” value is recorded as 0.3 mg/kg. Besides, the NDI in assay [2] (0.1 mg/kg p.o. alone, Example 28) is listed as 54.1%. This compound registered an NDI in assay [2] (Compound D 0.1 mg/kg p.o. alone, Example 31) of 56.8%.
`Cn1cc(-c2ccc(Cc3cc4c(=O)n([C@H]5CCCC[C@@H]5O)cnc4c4ccccc34)cn2)cn1` [Compound C, 3-((1S,2S)-2-hydroxycyclohexyl)-6-((6-(1-methyl-1H-pyrazol-4-yl)pyridin-3-yl)methyl)benzo[h]quinazoline-4(3H)-one, reference compound]: in assay [1], the “after hyperpolarization (AHP)” value was “suppressed the AHP”, the “resting membrane potential (RMP)” value is listed as “generated subthreshold changes in the RMP” and the “after depolarization (ADP)” value is “generated an ADP”. Besides, the EC50 at M5R is above 1 µM. Further, the EC50 at M3R is above 1 µM. For the same compound, the “scopolamine-induced cognitive deficits in NORT” value in assay [2] (0.1 and 0.3 mg/kg p.o., rats, P≤0.025) was “significantly ameliorated scopolamine-induced cognitive deficits”. Also, the “minimal efficacy dose in rats (cognitive improvement)” value in assay [2] was 0.1 mg/kg. The compound also gave an NDI in assay [2] (Compound C 0.03 mg/kg p.o. alone, Example 29) of 52.3%.
